From patent US20030104393A1, “Blood assessment of injury” (priority 2000, published 2003)

Tested on: blood cells
Experiment: Genes induced in blood 24 hours following kainate induced seizures (Affymetrix microarray)
Type: in vivo, rat
Conditions: for Average fold induction / Minimum fold induction: rat blood 24 h after kainate induced seizures vs untouched controls
Procedure: Status epilepticus is produced by intraperitoneally injecting a glutamate analogue/excitotoxin, kainic acid (10 mg/kg i.p.). Animals with kainate-induced seizures are observed following drug administration to ensure that they continue to have complex seizures over a 30 minute period.
All animals are allowed to survive for 24 hours following each treatment. At that time they are deeply anesthetized with ketamine (100 mg/kg) and xylazine (20 mg/kg) given intraperitoneally. Once anesthetized, the chest is opened and a direct cardiac puncture performed with a syringe and 10 cc of blood is aspirated. Immediately following removal of the blood, the animal is decapitated while deeply anesthetized and the brain removed.
One day after hypoxia, status epilepticus, hypoglycemia, ischemic stroke, and hemorrhagic stroke are produced in adult rats, RNA or protein is isolated from the blood cells and from the brains of the animals described in Example 1. The pattern of genes or proteins expressed in the blood cells following each of these types of injury—hypoxia, status epilepticus, hypoglycemia, ischemic stroke, and hemorrhagic stroke is captured on a commercially available microarray (Affymetrix chip). The pattern of gene or protein expression is defined using an expression method, which then forms a genomic or proteomic organ injury database, which is used in assessing injury.
For the tables of genes induced in the blood, the genome expression of blood in the hypoxic animals (3 animals) was compared to the genome expression of blood in untouched control animals (3 animals). The genome expression of blood in the animals with status epilepticus (3 animals) was compared to the genome expression of blood in the untouched control animals (3 animals). The genome expression of blood in the animals with stroke (3 animals) was compared to the genome expression of blood in the sham operated control animals (3 animals). In each case the accession number of the gene and the fold change in gene expression is given—with a maximum estimate and a minimum estimate.
Table 2 sets forth genes induced in the blood of rats 24 hours following kainate induced seizures (n=3 rats) as compared with genes expressed in the blood of untouched control rats (n=3 rats). The accession number of the gene is given, the name of the gene is given where known, the average fold induction is given, as well as the minimum fold induction is given for each gene. A number of the genes are ESTs that have not yet been subjected to a BLAST search. This list was shortened to show only those genes induced at least 2.8 fold. Over 100 genes were induced following kainate on arrays that contained over 8000 genes.

[1] = gene AF027571_s_at phospholipase C-beta 4 isoform (PLC-b4)
[2] = gene AF091563_i_at isolate QIL-LD1 olfactory receptor
[3] = gene AF102552_s_at ankyrin G isoform
[4] = gene D84485_at PMSG-induced ovarian mRNA
[5] = gene L42855_at RNA polymerase II transcription factor SIII p18 subunit
[6] = gene L81136cds_f_at Rps2r1 preliminary DNA
[7] = gene M96159_at adenylyl cyclase type V
[8] = gene S54212_at ciliary neurotrophic factor receptor alpha
[9] = gene U66566_at receptor type protein tyrosine phophatase psi
[10] = gene X06827_at porphobilinogen deaminase
[11] = gene Z28351exon_s_at 25-hydroxyvitamin D3 24-hydroxylase

Q: Which Average fold induction [1] does the source give for `C=C(C)[C@H]1CN[C@H](C(=O)O)[C@H]1CC(=O)O` [kainate, kainic acid] here?
A: 4.15 fold

Q: And the Minimum fold induction [1]?
A: 2.5 fold

Q: And the Average fold induction (gene AF045464_s_at)?
A: 6.5 fold

Q: What about the Minimum fold induction (gene AF045464_s_at) of the same compound?
A: 2.5 fold

Q: And the Average fold induction (gene AF079162_at patched (ptc))?
A: 5.4 fold

Q: And the Minimum fold induction (gene AF079162_at patched (ptc))?
A: 3.2 fold

Q: And the Average fold induction [2]?
A: 3.4 fold

Q: And the Minimum fold induction [2]?
A: 2.4 fold

Q: What about the Average fold induction [3] of the same compound?
A: 4.6 fold

Q: And the Minimum fold induction [3]?
A: 2.4 fold

Q: And the Average fold induction [4]?
A: 11.4 fold

Q: And the Minimum fold induction [4]?
A: 3.1 fold

Q: And the Average fold induction (gene D89863_g_at (M-ras) M-Ras)?
A: 5.6 fold

Q: What about the Minimum fold induction (gene D89863_g_at (M-ras) M-Ras) of the same compound?
A: 2.3 fold

Q: And the Average fold induction [5]?
A: 4.32 fold

Q: And the Minimum fold induction [5]?
A: 3.4 fold

Q: What about the Average fold induction [6] of the same compound?
A: 3.9 fold

Q: And the Minimum fold induction [6]?
A: 2.7 fold

Q: What about the Average fold induction (gene L81138exon Rps2r gene) of the same compound?
A: 5.5 fold

Q: What about the Minimum fold induction (gene L81138exon Rps2r gene) of the same compound?
A: 2.3 fold

Q: And the Average fold induction (gene M91234_f_at VL30 element)?
A: 4.4 fold

Q: What about the Minimum fold induction (gene M91234_f_at VL30 element) of the same compound?
A: 2.5 fold

Q: And the Average fold induction (gene M91235_f_at VL30 element)?
A: 3.9 fold

Q: What about the Minimum fold induction (gene M91235_f_at VL30 element) of the same compound?
A: 3 fold

Q: And the Average fold induction [7]?
A: 10 fold

Q: What about the Minimum fold induction [7] of the same compound?
A: 2.9 fold

Q: And the Average fold induction (gene Rc_AA799614_at)?
A: 4.7 fold

Q: What about the Minimum fold induction (gene Rc_AA799614_at) of the same compound?
A: 2.5 fold

Q: And the Average fold induction (gene Rc_AA852046_s_at)?
A: 4.3 fold

Q: And the Minimum fold induction (gene Rc_AA852046_s_at)?
A: 2.5 fold

Q: What about the Average fold induction (gene Rc_AA891828_at) of the same compound?
A: 4 fold

Q: What about the Minimum fold induction (gene Rc_AA891828_at) of the same compound?
A: 2.6 fold

Q: And the Average fold induction (gene Rc_AA894273_at)?
A: 5.2 fold

Q: What about the Minimum fold induction (gene Rc_AA894273_at) of the same compound?
A: 2.8 fold

Q: And the Average fold induction (gene Rc_AA925529_at)?
A: 4 fold

Q: What about the Minimum fold induction (gene Rc_AA925529_at) of the same compound?
A: 3 fold

Q: What about the Average fold induction (gene Rc_AA955182_g_at) of the same compound?
A: 9 fold

Q: What about the Minimum fold induction (gene Rc_AA955182_g_at) of the same compound?
A: 2.3 fold

Q: What about the Average fold induction (gene Rc_AI104924_f_at) of the same compound?
A: 4.1 fold

Q: And the Minimum fold induction (gene Rc_AI104924_f_at)?
A: 3.3 fold

Q: What about the Average fold induction [8] of the same compound?
A: 2.8 fold

Q: And the Minimum fold induction [8]?
A: 2.6 fold

Q: What about the Average fold induction [9] of the same compound?
A: 5.5 fold

Q: And the Minimum fold induction [9]?
A: 4.3 fold

Q: What about the Average fold induction (gene U73030_at) of the same compound?
A: 4.1 fold

Q: And the Minimum fold induction (gene U73030_at)?
A: 2.4 fold

Q: What about the Average fold induction [10] of the same compound?
A: 3.6 fold

Q: And the Minimum fold induction [10]?
A: 3 fold

Q: What about the Average fold induction (gene X60675_at interleukin 10) of the same compound?
A: 3.6 fold

Q: What about the Minimum fold induction (gene X60675_at interleukin 10) of the same compound?
A: 2.3 fold

Q: And the Average fold induction (gene X76697_at B7 antigen)?
A: 5.7 fold

Q: And the Minimum fold induction (gene X76697_at B7 antigen)?
A: 2.5 fold

Q: What about the Average fold induction [11] of the same compound?
A: 3.5 fold

Q: And the Minimum fold induction [11]?
A: 2.3 fold

Q: What about the Average fold induction (gene rc_AI102562_at) of the same compound?
A: 3 fold

Q: What about the Minimum fold induction (gene rc_AI102562_at) of the same compound?
A: 2.4 fold

Q: What about the “Number of genes induced following kainate” value (rat blood, arrays that contained over 8000 genes) of the same compound?
A: Over 100 genes
